Measurements taken from ChEMBL document CHEMBL4837226, “Discovery of pyrrole derivatives for the treatment of glioblastoma and chronic myeloid leukemia” (Eur J Med Chem, 2021).
The source made the active and inactive calls. No cut-off for these calls is given here.

How the values were obtained:
[1] = test system: U-87 MG; test: Cytotoxicity against human U-87MG cells assessed as cell growth inhibition measured after 48 hrs by MTS colorimetric assay; format: functional, cell-based, U-87MG ATCC
[2] = test system: KU812 cell line; test: Potentiation of ponatinib-induced apoptosis in human KU812 cells assessed as increase in apoptotic cells at 5 nM measured after 48 hrs by annexin V staining based flow cytometry analysis; format: functional, cell-based
[3] = target: DNA topoisomerase II (Homo sapiens) (UniProt P11388+Q02880); test: Inhibition of human topoisomerase II assessed as reduction in decantenation using kinetoplast DNA as a substrate at 100 uM measured after 1 hr by ethidium bromide staining based agarose gel electrophoresis analysis relative to control; format: protein assay
[4] = test system: U-87 MG; test: Antitumor activity against human U-87MG cells xenografted in BALB/c nu/nu mouse assessed as increase in activated caspase-3 expression at 25 mg/kg, ip administered every 2 days for 35 days by DAPI staining based immunofluorescence analysis; format: functional, organism-based; conditions: U-87MG ATCC, time 35.0 day
[5] = test system: KBM5; test: Induction of apoptosis in human KBM5 cells expressing T315I mutant assessed as increase in cytochrome C expression at 1 to 10 uM measured after 24 hrs by western blot analysis; format: functional, cell-based; conditions: dose 1-10 µM
[6] = target: T1, DNA topoisomerase 1 (Homo sapiens) (UniProt P11387); test: Inhibition of human recombinant topoisomerase I assessed as DNA cleavage using supercoiled pHOT1 plasmid DNA as substrate at 100 uM measured after 1 hr by agarose gel electrophoresis analysis
T1 sequence (whole entry): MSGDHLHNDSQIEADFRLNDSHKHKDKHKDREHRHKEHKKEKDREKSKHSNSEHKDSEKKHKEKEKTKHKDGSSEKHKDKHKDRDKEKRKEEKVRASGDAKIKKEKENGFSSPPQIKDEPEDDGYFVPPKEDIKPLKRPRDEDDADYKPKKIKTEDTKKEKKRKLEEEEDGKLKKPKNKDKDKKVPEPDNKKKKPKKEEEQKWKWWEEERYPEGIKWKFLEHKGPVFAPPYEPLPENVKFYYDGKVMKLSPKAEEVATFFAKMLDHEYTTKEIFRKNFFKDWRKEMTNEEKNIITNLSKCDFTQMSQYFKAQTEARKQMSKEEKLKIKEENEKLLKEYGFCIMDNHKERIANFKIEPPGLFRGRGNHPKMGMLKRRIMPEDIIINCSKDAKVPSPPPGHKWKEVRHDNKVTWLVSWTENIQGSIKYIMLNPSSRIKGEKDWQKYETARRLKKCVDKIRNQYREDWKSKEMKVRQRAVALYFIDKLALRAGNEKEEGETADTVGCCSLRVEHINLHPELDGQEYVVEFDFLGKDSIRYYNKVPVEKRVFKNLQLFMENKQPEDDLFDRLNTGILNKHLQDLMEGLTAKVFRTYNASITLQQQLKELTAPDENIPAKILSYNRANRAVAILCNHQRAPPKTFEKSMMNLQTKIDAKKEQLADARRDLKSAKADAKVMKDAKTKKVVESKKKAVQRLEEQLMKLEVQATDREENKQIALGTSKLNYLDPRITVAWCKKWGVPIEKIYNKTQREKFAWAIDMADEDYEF

[7] = test system: U-87 MG; test: Antitumor activity against human U-87MG cells xenografted in BALB/c nu/nu mouse assessed as reduction in tumor weight at 25 mg/kg, ip administered every 2 days for 35 days; format: functional, organism-based; conditions: U-87MG ATCC, time 35.0 day
[8] = test system: KBM5; test: Potentiation of ponatinib-induced apoptosis human KBM5 cells assessed as increase in apoptotic cells at 5 nM measured after 48 hrs by annexin V staining based flow cytometry analysis; format: functional, cell-based
[9] = test system: KBM5; test: Potentiation of ponatinib-induced mitochondrial membrane depolarization in human KBM5 cells expressing T315I mutant at 5 nM in the presence of ponatinib measured upto 48 hrs by JC-1 staining based flow cytometry analysis (Rvb= 32.7 %); format: functional; conditions: time hrs <=48
[10] = target: Tubulin (Homo sapiens) (UniProt P68371+Q9H4B7+P0DPH7+P68366+Q13509+Q71U36+P04350+Q3ZCM7+P07437+P68363+Q9BQE3+Q6PEY2+Q13885+Q9BVA1+Q9BUF5); test: Inhibition of [3H]Colchicine binding to tubulin (unknown origin) at 1 uM measured after 10 mins by DEAE-Cellulose filter method relative to control; format: protein-complex assay
[11] = test system: U-87 MG; test: Antitumor activity against human U-87MG cells xenografted in BALB/c nu/nu mouse assessed as reduction in tumor volume at 25 mg/kg, ip administered every 2 days for 35 days; format: functional, organism-based; conditions: U-87MG ATCC, time 35.0 day

- inhibition [3]: 100%
- inhibition [6]: Active
- inhibition [10]: 71%
Structure (SMILES): COc1cc(C(=O)c2cn(-c3ccc(C)cc3)cc2-c2ccsc2)cc(OC)c1OC
- IC50 [1]: 19.4 nM
- Activity [2]: Active
- Activity [4]: Active
- Activity [5]: Active
- Activity [7]: Active
- Activity [8]: Active
- Activity [9]: 56.7%
- Activity [11]: Active
